Patent publication US20230151003A1, “COMPOUNDS AND METHODS OF USE” (Exelixis, Inc., priority 2020, published 2023)

Assays:
[1] = target: T1, Mer (Homo sapiens, UniProt Q12866); experiment: Mer autophosphorylation ELISA in transient transfected 293A cells; type: cell-based; details: Table 3 Cellular Activities; MERTK-transfected 293A cells, phospho-Mer ELISA
T1 construct: host or cells: 293A cells (Thermo Fisher #R70507)
T1 sequence (Q12866 21-999): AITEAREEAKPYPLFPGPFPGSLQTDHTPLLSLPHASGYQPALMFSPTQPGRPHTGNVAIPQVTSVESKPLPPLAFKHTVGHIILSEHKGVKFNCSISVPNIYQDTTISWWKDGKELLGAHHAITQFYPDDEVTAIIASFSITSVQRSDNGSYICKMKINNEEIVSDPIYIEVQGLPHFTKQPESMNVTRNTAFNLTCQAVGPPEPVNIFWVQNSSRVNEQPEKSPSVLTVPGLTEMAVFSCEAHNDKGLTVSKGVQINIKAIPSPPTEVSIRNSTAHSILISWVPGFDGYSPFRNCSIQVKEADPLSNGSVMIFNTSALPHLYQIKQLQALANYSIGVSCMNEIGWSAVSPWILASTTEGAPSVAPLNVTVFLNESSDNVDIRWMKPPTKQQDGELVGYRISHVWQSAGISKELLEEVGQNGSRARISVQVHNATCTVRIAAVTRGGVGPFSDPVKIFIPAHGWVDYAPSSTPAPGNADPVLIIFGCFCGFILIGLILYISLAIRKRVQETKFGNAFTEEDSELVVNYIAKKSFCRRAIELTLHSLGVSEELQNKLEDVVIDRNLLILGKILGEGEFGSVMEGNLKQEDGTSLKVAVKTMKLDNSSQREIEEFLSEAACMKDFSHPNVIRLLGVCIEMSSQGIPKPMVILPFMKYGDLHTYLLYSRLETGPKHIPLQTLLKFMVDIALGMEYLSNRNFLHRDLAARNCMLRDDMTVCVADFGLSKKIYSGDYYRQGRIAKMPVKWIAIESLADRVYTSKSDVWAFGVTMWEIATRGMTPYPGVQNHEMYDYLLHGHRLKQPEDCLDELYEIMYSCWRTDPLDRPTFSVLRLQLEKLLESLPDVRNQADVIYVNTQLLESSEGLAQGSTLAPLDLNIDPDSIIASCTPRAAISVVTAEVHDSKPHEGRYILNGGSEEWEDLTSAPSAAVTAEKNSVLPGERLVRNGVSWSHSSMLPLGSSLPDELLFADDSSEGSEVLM
How it was run: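 Phospho-Mer quantified by ELISA in lysates of transiently MERTK-transfected 293A cells after 1 h exposure to an 8-point compound series, serum-free, 0.3% DMSO. Activity normalized between DMSO-treated (100%) and reference inhibitor-treated (0%) lysates; IC50 via 4-parameter nonlinear regression.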

[2] = target: Met (Homo sapiens, UniProt P08581); experiment: Met autophosphorylation ELISA in PC-3 cells; type: cell-based; set-up: endogenous in cells; host or cells: PC-3 prostate cancer cells (ATCC #CRL-1435); details: Table 3 Cellular Activities, HGF-stimulated, phospho-Met ELISA, read-out: c-Met IC50
How it was run: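 IC50 derived by 4-parameter logistic regression of phospho-Met (panTyr) sandwich ELISA signal, scaled between HGF-stimulated DMSO and reference-inhibitor lysates. PC-3 cells, serum-starved 3 h, received an 8-point compound series (0.3% DMSO) for 1 h before 10 min stimulation with 100 ng/mL human HGF.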

Sequence of Met (P08581 25-1390): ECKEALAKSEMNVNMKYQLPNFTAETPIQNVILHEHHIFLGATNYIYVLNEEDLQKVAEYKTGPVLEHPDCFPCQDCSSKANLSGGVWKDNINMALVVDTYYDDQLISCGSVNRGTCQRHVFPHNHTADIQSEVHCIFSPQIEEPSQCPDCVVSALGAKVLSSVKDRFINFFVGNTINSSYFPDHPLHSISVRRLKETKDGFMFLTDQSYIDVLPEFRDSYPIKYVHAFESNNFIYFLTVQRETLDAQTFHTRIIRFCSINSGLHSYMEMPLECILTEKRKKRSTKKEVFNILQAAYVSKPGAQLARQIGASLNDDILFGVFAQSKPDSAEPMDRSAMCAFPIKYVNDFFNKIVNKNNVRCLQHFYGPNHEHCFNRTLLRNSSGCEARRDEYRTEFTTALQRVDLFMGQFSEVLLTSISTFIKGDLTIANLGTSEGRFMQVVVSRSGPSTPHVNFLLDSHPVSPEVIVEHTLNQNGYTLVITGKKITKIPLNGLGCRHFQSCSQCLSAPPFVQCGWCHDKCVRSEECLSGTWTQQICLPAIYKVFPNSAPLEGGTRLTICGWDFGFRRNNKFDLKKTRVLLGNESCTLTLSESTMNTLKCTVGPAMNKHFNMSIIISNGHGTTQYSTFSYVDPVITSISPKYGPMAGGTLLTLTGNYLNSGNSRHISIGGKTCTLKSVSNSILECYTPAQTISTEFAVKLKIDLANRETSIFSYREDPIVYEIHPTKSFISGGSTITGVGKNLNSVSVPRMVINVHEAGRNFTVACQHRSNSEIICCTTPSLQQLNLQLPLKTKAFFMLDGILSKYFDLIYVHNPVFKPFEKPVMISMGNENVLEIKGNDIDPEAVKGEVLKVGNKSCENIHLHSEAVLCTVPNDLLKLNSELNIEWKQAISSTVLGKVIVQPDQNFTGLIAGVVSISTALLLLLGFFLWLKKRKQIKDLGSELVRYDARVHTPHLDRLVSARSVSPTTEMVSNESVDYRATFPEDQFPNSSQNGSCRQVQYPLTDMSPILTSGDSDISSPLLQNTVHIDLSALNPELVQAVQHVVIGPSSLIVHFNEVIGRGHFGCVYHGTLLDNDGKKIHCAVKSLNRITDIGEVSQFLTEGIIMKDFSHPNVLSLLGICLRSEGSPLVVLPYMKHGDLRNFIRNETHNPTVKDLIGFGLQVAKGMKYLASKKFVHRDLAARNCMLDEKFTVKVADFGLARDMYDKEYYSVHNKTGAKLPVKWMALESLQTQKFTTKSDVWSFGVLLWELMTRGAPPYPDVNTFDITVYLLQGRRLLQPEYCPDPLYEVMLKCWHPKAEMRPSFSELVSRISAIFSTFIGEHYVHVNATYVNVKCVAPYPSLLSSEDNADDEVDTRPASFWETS

| Structure (SMILES) | IC50 [1] | IC50 [2] |
| --- | --- | --- |
| COc1cc2nccc(Oc3ccc(NC(=O)c4c(C)nc(C)c(-c5cc(C)nn5C)c4O)cc3F)c2nc1OC [Compound 109, N-[4-[(6,7-Dimethoxy-1,5-naphthyridin-4-yl)oxy]-3-fluoro-phenyl]-5-(2,5-dimethylpyrazol-3-yl)-4-hydroxy-2,6-dimethyl-pyridine-3-carboxamide] | ≤ 100 nM | ≤ 100 nM |
| COc1ccc2nccc(Oc3ccc(NC(=O)c4cnc(C)c(-c5ccco5)c4O)cc3F)c2n1 [Compound 118, N-[3-Fluoro-4-[(6-methoxy-1,5-naphthyridin-4-yl)oxy]phenyl]-5-(furan-2-yl)-4-hydroxy-6-methylpyridine-3-carboxamide] | ≤ 100 nM | ≤ 100 nM |
| COc1cnc2c(Oc3ccc(NC(=O)c4cnc(C)c(-c5ccco5)c4O)cc3)ccnc2c1 [Compound 129, 5-(Furan-2-yl)-4-hydroxy-N-[4-[(7-methoxy-1,5-naphthyridin-4-yl)oxy]phenyl]-6-methylpyridine-3-carboxamide] | ≤ 100 nM | ≤ 100 nM |
| COc1cc2nccc(Oc3ccc(NC(=O)c4c(C)nc(C)c(-c5ccco5)c4O)cc3F)c2nc1OC [Compound 135, N-[4-[(6,7-Dimethoxy-1,5-naphthyridin-4-yl)oxy]-3-fluorophenyl]-5-(furan-2-yl)-4-hydroxy-2,6-dimethylpyridine-3-carboxamide] | ≤ 100 nM | ≤ 100 nM |
| COc1cc2nccc(Oc3ccc(NC(=O)c4cnc(C)c(-c5ccc(C)o5)c4O)cc3F)c2nc1OC [Compound 92, N-[4-[(6,7-Dimethoxy-1,5-naphthyridin-4-yl)oxy]-3-fluoro-phenyl]-4-hydroxy-6-methyl-5-(5-methyl-2-furyl)pyridine-3-carboxamide] | ≤ 100 nM | ≤ 100 nM |
| COc1cc2nccc(Oc3ccc(NC(=O)c4cnc(C)c(-c5nccs5)c4O)cc3F)c2nc1OC [Compound 143, N-[4-[(6,7-Dimethoxy-1,5-naphthyridin-4-yl)oxy]-3-fluorophenyl]-4-hydroxy-6-methyl-5-(1,3-thiazol-2-yl)pyridine-3-carboxamide] | ≤ 100 nM | ≤ 100 nM |
| COc1cc2nccc(Oc3ccc(NC(=O)c4c(C)ncc(-c5ccc(C)o5)c4O)cc3F)c2nc1OC [Compound 120, N-[4-[(6,7-Dimethoxy-1,5-naphthyridin-4-yl)oxy]-3-fluorophenyl]-4-hydroxy-2-methyl-5-(5-methylfuran-2-yl)pyridine-3-carboxamide] | ≤ 100 nM | ≤ 100 nM |
| COc1cnc2c(Oc3ccc(NC(=O)c4cn(CCF)c(C)c(-c5cccs5)c4=O)cc3F)ccnc2c1 [Compound 331, 1-(2-Fluoroethyl)-N-[3-fluoro-4-[(7-methoxy-1,5-naphthyridin-4-yl)oxy]phenyl]-6-methyl-4-oxo-5-thiophen-2-ylpyridine-3-carboxamide] | ≤ 100 nM | ≤ 100 nM |
| COc1cc2nccc(Oc3ccc(NC(=O)c4c(C)n(C)c(C)c(-c5cccs5)c4=O)cc3F)c2nc1OC [Compound 168, N-[4-[(6,7-Dimethoxy-1,5-naphthyridin-4-yl)oxy]-3-fluorophenyl]-1,2,6-trimethyl-4-oxo-5-thiophen-2-ylpyridine-3-carboxamide] | ≤ 100 nM | ≤ 100 nM |
| COc1cc2nccc(Oc3ccc(NC(=O)c4c(C)ncc(-c5cc(C)cs5)c4O)cc3F)c2nc1OC [Compound 125, N-[4-[(6,7-Dimethoxy-1,5-naphthyridin-4-yl)oxy]-3-fluorophenyl]-4-hydroxy-2-methyl-5-(4-methylthiophen-2-yl)pyridine-3-carboxamide] | ≤ 100 nM | ≤ 100 nM |
| COc1cc2nccc(Oc3ccc(NC(=O)c4c(C)ncc(-c5ccco5)c4O)cc3F)c2nc1OC [Compound 119, N-[4-[(6,7-Dimethoxy-1,5-naphthyridin-4-yl)oxy]-3-fluorophenyl]-5-(furan-2-yl)-4-hydroxy-2-methylpyridine-3-carboxamide] | ≤ 100 nM | ≤ 100 nM |
| COc1cc2nccc(Oc3ccc(NC(=O)c4cnc(C)c(-c5sccc5C)c4O)cc3F)c2nc1OC [Compound 103, N-[4-[(6,7-Dimethoxy-1,5-naphthyridin-4-yl)oxy]-3-fluoro-phenyl]-4-hydroxy-6-methyl-5-(3-methyl-2-thienyl) pyridine-3-carboxamide] | ≤ 100 nM | ≤ 100 nM |
| COc1cc2nccc(Oc3ccc(NC(=O)c4cnc(C)c(-c5cc(C(F)(F)F)nn5C)c4O)cc3F)c2nc1OC [Compound 105] | ≤ 100 nM | 100 to 300 nM |
| COc1cnc2c(Oc3ccc(NC(=O)c4cn(CCF)c(C)c(-c5ccc(C)s5)c4=O)cc3F)ccnc2c1 [Compound 329, 1-(2-Fluoroethyl)-N-[3-fluoro-4-[(7-methoxy-1,5-naphthyridin-4-yl)oxy]phenyl]-6-methyl-5-(5-methylthiophen-2-yl)-4-oxopyridine-3-carboxamide] | ≤ 100 nM | ≤ 100 nM |
| COc1nc2c(Oc3ccc(NC(=O)c4c(C)n(C)c(C)c(-c5ccco5)c4=O)cc3F)ccnc2cc1OCCC1CCC1 [Compound 337, N-[4-[[7-(2-Cyclobutylethoxy)-6-methoxy-1,5-naphthyridin-4-yl]oxy]-3-fluorophenyl]-5-(furan-2-yl)-1,2,6-trimethyl-4-oxopyridine-3-carboxamide] | ≤ 100 nM | ≤ 100 nM |
| COc1cc2nccc(Oc3ccc(NC(=O)c4c(C)nc(C)c(-c5ccc(C6CC6)o5)c4O)cc3F)c2nc1OC [Compound 155B, 5-(5-Cyclopropylfuran-2-yl)-N-[4-[(6,7-dimethoxy-1,5-naphthyridin-4-yl)oxy]-3-fluorophenyl]-4-hydroxy-2,6-dimethylpyridine-3-carboxamide] | ≤ 100 nM | ≤ 100 nM |
| COCc1nc(C)c(-c2ccc(C)o2)c(O)c1C(=O)Nc1ccc(Oc2ccnc3cc(OC)c(OC)nc23)c(F)c1 [Compound 117, N-[4-[(6,7-Dimethoxy-1,5-naphthyridin-4-yl)oxy]-3-fluorophenyl]-4-hydroxy-2-(methoxymethyl)-6-methyl-5-(5-methylfuran-2-yl)pyridine-3-carboxamide] | ≤ 100 nM | ≤ 100 nM |
| COc1cc2nccc(Oc3ccc(NC(=O)c4c(C)nc(C)c(-c5ccc(C)s5)c4O)cc3F)c2nc1OC [Compound 111, N-[4-[(6,7-Dimethoxy-1,5-naphthyridin-4-yl)oxy]-3-fluoro-phenyl]-4-hydroxy-2,6-dimethyl-5-(5-methyl-2-thienyl)pyridine-3-carboxamide] | ≤ 100 nM | ≤ 100 nM |
| COc1cnc2c(Oc3ccc(NC(=O)c4cnc(C)c(-c5ccoc5)c4O)cc3F)ccnc2c1 [Compound 99, N-[3-Fluoro-4-[(7-methoxy-1,5-naphthyridin-4-yl)oxy]phenyl]-5-(3-furyl)-4-hydroxy-6-methyl-pyridine-3-carboxamide] | ≤ 100 nM | ≤ 100 nM |
| COc1cc2nccc(Oc3ccc(NC(=O)c4cnc(C)c(-c5ccnn5C)c4O)cc3F)c2nc1OC [Compound 104] | ≤ 100 nM | ≤ 100 nM |
| COc1cc2nccc(Oc3ccc(NC(=O)c4cnc(C)c(-c5ccsc5)c4O)cc3F)c2nc1OC [Compound 93, N-[4-[(6,7-Dimethoxy-1,5-naphthyridin-4-yl)oxy]-3-fluoro-phenyl]-4-hydroxy-6-methyl-5-(3-thienyl)pyridine-3-carboxamide] | ≤ 100 nM | ≤ 100 nM |
| COc1cc2nccc(Oc3ccc(NC(=O)c4cn(CCF)c(C)c(-c5ccsc5)c4=O)cc3F)c2nc1OC [Compound 332, N-[4-[(6,7-Dimethoxy-1,5-naphthyridin-4-yl)oxy]-3-fluorophenyl]-1-(2-fluoroethyl)-6-methyl-4-oxo-5-thiophen-3-ylpyridine-3-carboxamide] | ≤ 100 nM | ≤ 100 nM |
| COc1cnc2c(Oc3ccc(NC(=O)c4c(C)n(C)c(C)c(-c5cccs5)c4=O)cc3)ccnc2c1 [Compound 165, N-[4-[(7-Methoxy-1,5-naphthyridin-4-yl)oxy]phenyl]-1,2,6-trimethyl-4-oxo-5-thiophen-2-ylpyridine-3-carboxamide] | ≤ 100 nM | ≤ 100 nM |
